Test systems include PC-3 prostate; TK-10 renal; BT-549 breast; HOP-92 NSCLC; SK-MEL-5 melanoma; A549 NSCLC; T-47D breast; U251 CNS; OVCAR-8 ovarian; UO-31 renal.
What all share (assay): inhibition of tumour cell growth, NCI panel, 48 h

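Five compound concentrations were applied to cells in 96-well plates for 48 hours; endpoints were derived by simple linear interpolation of the resulting dose-response curve. The concentration for 50% growth inhibition is given as GI50. TGI marks complete inhibition of growth.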 Bounds are passed on as bounds.

As to `COC(=O)C(I(OS(=O)(=O)c1ccc(C)cc1)c1ccccc1)=P(c1ccccc1)(c1ccccc1)c1ccccc1`, the TGI worked out at 62 µM in the assay with PC-3 prostate; 57 µM in the assay on TK-10 renal; 45.5 µM in the assay on BT-549 breast; 35.4 µM in the assay on HOP-92 NSCLC; 26.1 µM with SK-MEL-5 melanoma; 60.6 µM with A549 NSCLC. The TGI with T-47D breast stood at 48.2 µM; with U251 CNS it was 40.7 µM; in the assay with OVCAR-8 ovarian it was 48.1 µM; in the assay with UO-31 renal, 54.8 µM.

As for `Cc1ccc(-n2cc(-c3ccc(Cl)cc3)c3c(NNC(=S)NCc4ccccc4)ncnc32)cc1`, the TGI amounted to 23.1 µM with PC-3 prostate; 68.2 µM in the assay on TK-10 renal; 83 µM with BT-549 breast; 66 µM in the assay on HOP-92 NSCLC; 19.5 µM in the assay on SK-MEL-5 melanoma; 41.1 µM with A549 NSCLC. Besides, the TGI in the assay on T-47D breast is > 100 µM; with U251 CNS it was 48.6 µM; in the assay with OVCAR-8 ovarian, 69.3 µM; in the assay on UO-31 renal, 24.2 µM.

Turning to `Clc1ccc(CCN2CCN(CCCc3ccccc3)CC2)cc1Cl`, the TGI came out at 31.6 µM in the assay on PC-3 prostate; 30.1 µM in the assay on TK-10 renal; 29.4 µM with BT-549 breast; 23.6 µM in the assay on HOP-92 NSCLC; 29.9 µM in the assay on SK-MEL-5 melanoma; 29.9 µM in the assay on A549 NSCLC. Also, the TGI in the assay with T-47D breast is 35.1 µM; in the assay with U251 CNS, 31.9 µM; with OVCAR-8 ovarian, 30.4 µM; in the assay with UO-31 renal, 24.7 µM.

Take `O=c1[nH]/c(=C/c2ccc(OCc3ccccc3)cn2)c(=O)[nH]/c1=C/c1cccnc1`: the TGI in the assay on PC-3 prostate, in the assay on TK-10 renal, with BT-549 breast, in the assay on HOP-92 NSCLC, with A549 NSCLC and with T-47D breast was > 100 µM each time. Also, the TGI with U251 CNS and in the assay with OVCAR-8 ovarian was > 100 µM throughout.

Consider `CC(C)(C)OC(=O)N(CCCN)CCCCN(CCCN)C(=O)OC(C)(C)C`, for which the TGI in the assay on PC-3 prostate, in the assay on TK-10 renal, in the assay with BT-549 breast, in the assay with HOP-92 NSCLC, in the assay on SK-MEL-5 melanoma and with A549 NSCLC was > 100 µM throughout. The TGI with T-47D breast, in the assay with U251 CNS, in the assay with OVCAR-8 ovarian and with UO-31 renal was > 100 µM each time.

Regarding `COc1cc(C2c3cc4c(c(O)c3C(=O)C3CCC(=O)N32)OCO4)cc(OC)c1OC` (centres undefined), the TGI was > 100 µM in the assay with PC-3 prostate; > 100 µM in the assay on TK-10 renal; 92.5 µM with BT-549 breast; 86.7 µM with HOP-92 NSCLC; > 100 µM with SK-MEL-5 melanoma; > 100 µM in the assay on A549 NSCLC. The TGI in the assay on T-47D breast, in the assay on U251 CNS, in the assay on OVCAR-8 ovarian and with UO-31 renal was > 100 µM in each case.

For the compound `O=S(=O)(N1CCCCN(S(=O)(=O)C(F)(F)F)CCCN(S(=O)(=O)C(F)(F)F)CCCN(S(=O)(=O)C(F)(F)F)CCCCN(S(=O)(=O)C(F)(F)F)CCCN(S(=O)(=O)C(F)(F)F)CCC1)C(F)(F)F`, the TGI in the assay with PC-3 prostate is > 100 µM; in the assay on TK-10 renal, > 100 µM; in the assay with BT-549 breast, 73.2 µM; in the assay on HOP-92 NSCLC, > 100 µM; with SK-MEL-5 melanoma, > 100 µM; in the assay with A549 NSCLC, > 100 µM. The TGI is > 100 µM with T-47D breast, 64.1 µM in the assay on U251 CNS, > 100 µM in the assay with OVCAR-8 ovarian and > 100 µM in the assay with UO-31 renal.

In the case of `COc1cc(OC)cc(N(C)Cc2cnc3nc(N)nc(N)c3c2C)c1`, the TGI in the assay with PC-3 prostate, with TK-10 renal, in the assay with BT-549 breast, in the assay on HOP-92 NSCLC, in the assay with SK-MEL-5 melanoma and in the assay on A549 NSCLC was > 100 µM in each case. In addition, the TGI in the assay on T-47D breast, in the assay on U251 CNS, in the assay with OVCAR-8 ovarian and in the assay with UO-31 renal was > 100 µM each time.

Consider `C[C@H]1C(=O)C2=C[C@H]1CCC(=O)[C@]1(C)CCCC(C)(C)[C@H]1C[C@H]2O`, for which the TGI was > 100 µM with PC-3 prostate; 28.7 µM in the assay with TK-10 renal; 94.5 µM in the assay with BT-549 breast; 54.3 µM with HOP-92 NSCLC; 43.6 µM in the assay with A549 NSCLC; 32.9 µM with T-47D breast. For the same compound, the figures for the TGI with U251 CNS, with OVCAR-8 ovarian and in the assay on UO-31 renal were 28.4 µM, 35 µM and 75.1 µM, respectively.

Regarding `COc1ccc(N=Nc2ccc3oc(=O)c(C(=O)Nc4ccc(OC)cc4)cc3c2)cc1`, the TGI with PC-3 prostate was 43.1 µM; in the assay on TK-10 renal it was > 100 µM; with BT-549 breast, 39 µM; in the assay with HOP-92 NSCLC it was 50.1 µM; in the assay with SK-MEL-5 melanoma it was 33.3 µM; in the assay with A549 NSCLC, > 100 µM. Moreover, the TGI with T-47D breast turned out to be 29.8 µM; with U251 CNS, 30 µM; in the assay with OVCAR-8 ovarian it was 37.8 µM; with UO-31 renal it was 62.4 µM.

For `COc1ccc(/C=N/NC(=O)c2ccccc2Nc2ccccc2C(=O)N/N=C/c2ccc(OC)c(OC)c2)cc1OC`, the TGI in the assay with PC-3 prostate, in the assay with TK-10 renal, with BT-549 breast, in the assay with HOP-92 NSCLC, with SK-MEL-5 melanoma and in the assay with A549 NSCLC was > 100 µM in each case. In addition, the TGI in the assay on T-47D breast, in the assay on U251 CNS, with OVCAR-8 ovarian and in the assay on UO-31 renal was > 100 µM throughout.

As for `COc1ccc2[nH]c3c(C)c4ccnc(NCCCN(C)CCCNC(=O)NCCCN(C)CCCNc5nccc6c(C)c7[nH]c8ccc(OC)cc8c7c(C)c56)c4c(C)c3c2c1`, the TGI is 2.79 µM with PC-3 prostate; > 50 µM in the assay on TK-10 renal; 4.99 µM in the assay with BT-549 breast; 3.93 µM with HOP-92 NSCLC; 2.29 µM with T-47D breast; > 16.9 µM in the assay on UO-31 renal.

For `COc1cccc2c(NNc3ccc(Cl)cc3)c3ccc([N+](=O)[O-])cc3nc12`, the TGI in the assay on PC-3 prostate stood at 26.1 µM; with TK-10 renal, 25.8 µM; in the assay on BT-549 breast, 29.8 µM; with HOP-92 NSCLC it was 27.7 µM; in the assay with SK-MEL-5 melanoma, 80.4 µM; in the assay with A549 NSCLC, 28.4 µM. The TGI worked out at 61.8 µM with T-47D breast, 31.2 µM with U251 CNS and 37.9 µM with UO-31 renal.

Turning to `COc1ccc2c(c1)CCC1C2CCC2(C)C1CC[C@@]2(O)CNC(=O)/C=C/c1ccc(O)c(O)c1` (some centres undefined), the GI50 with PC-3 prostate is 1.92 µM; in the assay on TK-10 renal it was 2.52 µM; with BT-549 breast it was 3.95 µM; in the assay with HOP-92 NSCLC, 2.23 µM; with SK-MEL-5 melanoma, 3.41 µM; in the assay with A549 NSCLC, 3.95 µM. In addition, the GI50 in the assay on T-47D breast was 3.15 µM; in the assay on U251 CNS it was 1.65 µM; in the assay on OVCAR-8 ovarian it was 4.13 µM. For the same compound, the TGI in the assay with PC-3 prostate is 10.2 µM; in the assay with TK-10 renal it was 9.81 µM; in the assay on BT-549 breast, > 100 µM; in the assay with HOP-92 NSCLC, 14.7 µM; in the assay on SK-MEL-5 melanoma, 9.6 µM; in the assay with A549 NSCLC, 29.3 µM. The TGI in the assay on T-47D breast is > 100 µM; in the assay with U251 CNS, 4.41 µM; in the assay with OVCAR-8 ovarian, > 100 µM.

For `O=C(C(Cl)=C(Nc1ccccc1)Nc1ccccc1)C(Cl)Cl`, the TGI in the assay on PC-3 prostate was > 100 µM; in the assay on TK-10 renal it was > 100 µM; in the assay on BT-549 breast, > 100 µM; in the assay on HOP-92 NSCLC it was 65.6 µM; with SK-MEL-5 melanoma, 35.6 µM; with A549 NSCLC, > 100 µM. Further, the TGI in the assay with T-47D breast is 75.9 µM; in the assay on OVCAR-8 ovarian, 42.8 µM; with UO-31 renal it was > 100 µM.

On to `CC(C)(Oc1ccc(C2C[C@H]2Cl)cc1)C(=O)O` (some centres undefined), for which the TGI in the assay on PC-3 prostate, in the assay with TK-10 renal, in the assay with BT-549 breast, with HOP-92 NSCLC, in the assay with SK-MEL-5 melanoma and in the assay on A549 NSCLC was > 100 µM in each case. The TGI in the assay with T-47D breast and in the assay with U251 CNS was > 100 µM throughout.

Consider `C[Si](C)(C)C1=C2C(=O)c3ccccc3C(=O)C2=C([Si](C)(C)C)[C@@H]2CCCC[C@H]12`, for which the TGI with PC-3 prostate, with TK-10 renal, in the assay with BT-549 breast, with HOP-92 NSCLC, with SK-MEL-5 melanoma and in the assay with A549 NSCLC was > 100 µM throughout. For the same compound, the TGI in the assay on T-47D breast, in the assay with U251 CNS and with UO-31 renal was > 100 µM in each case.

Consider `C[N+]12C=CC=C1C(N1CCCC1)c1sc(-c3ccc(Cl)cc3)cc12` (centres undefined), for which the TGI in the assay with PC-3 prostate was 29.9 µM; in the assay on TK-10 renal it was 40.7 µM; in the assay on BT-549 breast, 22 µM; in the assay on SK-MEL-5 melanoma it was 31.8 µM; with A549 NSCLC, 87.6 µM; in the assay on T-47D breast, 35.4 µM. Further, the TGI is 24.5 µM in the assay with U251 CNS, 33.5 µM with OVCAR-8 ovarian and > 100 µM in the assay with UO-31 renal.

Turning to `CCO/C=N/C1=C(C#N)C(c2ccc(OC)c(OC)c2)c2c(-c3ccccc3)nn(-c3ccccc3)c2O1` (centres undefined), the TGI in the assay with PC-3 prostate is > 100 µM; with BT-549 breast, 23.8 µM; with HOP-92 NSCLC it was 30 µM; in the assay with SK-MEL-5 melanoma, 24.4 µM; in the assay with A549 NSCLC it was 40.5 µM; in the assay on T-47D breast, 60.5 µM. Moreover, the TGI with U251 CNS worked out at 26.8 µM; in the assay on OVCAR-8 ovarian, 47.6 µM; in the assay on UO-31 renal, 38.5 µM.

The values are drawn from PubChem BioAssay (NCI).
